# Reference: patent US9051575B2, “Alga in which production of photosynthetic products is improved, and use for said alga” (Japan Science and Technology Agency, priority 2010, dated 2015)
# Entries after “also recorded” stand apart in the source; their conditions may differ.
# Assays:
# Assay type in all cases: cell-based, Chlamydomonas reinhardtii
# [1] = tested on: GSH1 overexpressing strain; assay: Flow cytometry of particle densities in the culture (TAP medium, semi-heterotrophic); settings: addition of 8 mM BSO, 45 μE/m^2/sec, number of particles in 1 mL culture solution divided by the cube of 10
# Experimental: (§1) The GSH1 overexpressing strain produced in Example 1 was cultured under a semi-heterotrophic condition with the use of tris-acetate-phosphate (TAP) medium having pH7 (see Proc. Natl. Acad. Sci. USA, 54, 1665-1669.), and a growth capacity and a starch production capacity of the GSH1 overexpressing strain were evaluated. A CC503 strain (hereinafter referred to as “parent strain (wild-type strain)”) which is a wild-type Chlamydomonas strain was used as a control.
# (§2) Flow cytometry was carried out for more detailed analysis of the states of the GSH1 overexpressing strain of Sample 4 and the parent strain (wild-type strain) of Sample 8. Specifically, the cells of Samples 4 and 8 were irradiated with excitation light of 488 nm, and fluorescence intensity in the vicinity of 600 nm was measured. The fluorescence in the vicinity of 600 nm corresponds to chlorophyll fluorescence. Along with the chlorophyll fluorescence, fluorescent particles (produced by Beckman Coulter Inc., product name: Flow count) were used as an internal control for measuring a cell density. In this way, fluorescence in the range from 525 nm to 700 nm emitted by the excitation light of 488 nm was measured. Further, forward-scattered light and lateral-scattered light were measured so as to measure cell (particle) size and cell (particle) internal complexity.
# (§3) Note that the number of cells (particles) shown in Tables 3 and 4, which is expressed by a value obtained by dividing the number of particles contained in 1 mL of the culture solution by the cube of 10, was found on the basis of the value of the internal control.
# [2] = tested on: parent strain (wild-type strain) CC503; assay: as above; settings: addition of 8 mM BSO, 45 μE/m^2/sec, number of particles in 1 mL culture solution divided by the cube of 10
# Experimental: as §1, §2, §3
# [3] = tested on: GSH1 overexpressing strain; assay: Starch production capacity / discharge of starch grains to outside of cells (clouding of culture solution, iodostarch reaction); settings: BSO added to TAP medium, final concentration 8 mM
# Experimental: as §1
# L-Buthionine-sulfoximine (abbreviated as BSO (produced by Sigma-Aldrich Corporation, Model No. B2515) added to TAP medium in Samples 2 and 6 is an inhibitor for GSH synthesis.
# (a) of FIG. 1 is a graph showing growth capacities of the respective GSH1 overexpressing strains, and (b) of FIG. 1 is a view showing states of respective culture solutions 309 hours after start of culturing. (a) of FIG. 2 is a graph showing growth capacities of respective parent strains (wild-type strains), and (b) of FIG. 2 is a view showing states of respective culture solutions 215 hours after start of culturing. […] The optical density represented by the vertical axis was measured by a device (manufactured by TAITEC CORPORATION, ODSensor-S/ODBox-A) for measuring an OD value on the basis of a transmission amount of infrared rays (950 nm). […]
smiles,measurement,setting,value
"CCCCS(=N)(=O)CCC(N)C(=O)O [BSO, L-Buthionine-sulfoximine]",density of particles which did not emit chlorophyll-derived fluorescence as a result of irradiation of excitation light (488 nm) (starch grains),[1],602
same,density of particles which emitted chlorophyll-derived fluorescence as a result of irradiation of excitation light (488 nm),[1],"4,228"
same,density of particles which did not emit chlorophyll-derived fluorescence as a result of irradiation of excitation light (488 nm) (starch grains),[2],27
same,density of particles which emitted chlorophyll-derived fluorescence as a result of irradiation of excitation light (488 nm),[2],"19,633"
same,discharge of starch to an outside of the cells,[3],starch was not discharged to an outside of the cells; also recorded: starch was not discharged into an outside of the cells
